The compounds below were run against T1, Cys12 of the KRAS 4B G12C protein (Homo sapiens, UniProt P01116, G12C) (assay: In vitro covalent adduct formation (CAF) assay, LC-MS intact mass). Details: 10 uM compound, 60 min.
T1 construct: This protein contained 188 amino acids in total, including an N-terminal 6-Histidine tag; made in house; host or cells: E. coli BL21
Format: binding
How it was run: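 GDP-loaded (>95%) His-TEV-tagged KRAS 4B G12C (residues 1–169), 5 μM in TBS pH 7.4, incubated with 10 μM compound (4% DMSO) at 22° C for one hour. Intact-protein LC-MS gave free:adduct ratios, reported as percent protein modified; duplicate runs.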

Row | % CAF 10 uM @ 60 min [%] | SMILES
1 | 92.8 | C=CC(=O)N1CCN(c2nc(=O)n3c4c(c(-c5cc(Cl)c(F)cc5F)c(C(F)(F)F)cc24)SC[C@@H]3CN2CCN(C3CC3)CC2)CC1 (atropisomer, axis not shown) [Example 1356, (3S,10S)-7-(4-acryloylpiperazin-1-yl)-10-(5-chloro-2,4-difluorophenyl)-3-((4-cyclopropylpiperazin-1-yl)methyl)-9-(trifluoromethyl)-2,3-dihydro-5H-[1,4]thiazino[2,3,4-ij]quinazolin-5-one]
2 | 96.4 | C=CC(=O)N1C[C@H](C)N(c2nc(=O)n3c4c(c(-c5cc(Cl)c(F)cc5F)c(C(F)(F)F)cc24)SC[C@@H]3CN2CCC3(CC2)COC3)C[C@H]1C (atropisomer, axis not shown) [Example 1313, (3S,10R)-3-((2-oxa-7-azaspiro[3.5]nonan-7-yl)methyl)-7-((2S,5R)-4-acryloyl-2,5-dimethylpiperazin-1-yl)-10-(5-chloro-2,4-difluorophenyl)-9-(trifluoromethyl)-2,3-dihydro-5H-[1,4]thiazino[2,3,4-ij]quinazolin-5-one]
3 | 95 | C=CC(=O)N1[C@H](C)CN(c2nc(=O)n3c4c(c(-c5ccc(F)cc5F)c(C(F)(F)F)cc24)SC[C@@H]3CC)C[C@@H]1C [Example 1451, (3S)-7-((3S,5R)-4-acryloyl-3,5-dimethylpiperazin-1-yl)-10-(2,4-difluorophenyl)-3-ethyl-9-(trifluoromethyl)-2,3-dihydro-5H-[1,4]thiazino[2,3,4-ij]quinazolin-5-one]
4 | 71.6 | C=CC(=O)N1[C@H](C)CN(c2nc(=O)n3c4c(c(-c5ccc(F)c(Cl)c5)c(C(F)(F)F)cc24)SC[C@@H](N2CCOCC2)C3)C[C@@H]1C [Example 1386, (S)-8-((3S,5R)-4-acryloyl-3,5-dimethylpiperazin-1-yl)-11-(3-chloro-4-fluorophenyl)-3-morpholino-10-(trifluoromethyl)-3,4-dihydro-2H,6H-[1,4]thiazepino[2,3-4-ij]quinazolin-6-one]
5 | 61 | C=CC(=O)N1[C@H](C)CN(c2nc(=O)n3c4c(c(-c5ccc(F)cc5)c(C(F)(F)F)cc24)SC[C@@H]3CN2CCN(C3CC3)CC2)C[C@@H]1C [Example 1333, (S)-7-((3S,5R)-4-acryloyl-3,5-dimethylpiperazin-1-yl)-3-((4-cyclopropylpiperazin-1-yl)methyl)-10-(4-fluorophenyl)-9-(trifluoromethyl)-2,3-dihydro-5H-[1,4]thiazino[2,3,4-ij]quinazolin-5-one]
6 | 93.9 | C=CC(=O)N1[C@H](C)CN(c2nc(=O)n3c4c(c(-c5cc(Cl)c(F)cc5F)c(C(F)(F)F)cc24)SC[C@@H]3CN(C)C)C[C@@H]1C (atropisomer, axis not shown) [Example 1375, (3S,10R)-7-((3S,5R)-4-acryloyl-3,5-dimethylpiperazin-1-yl)-10-(5-chloro-2,4-difluorophenyl)-3-((dimethylamino)methyl)-9-(trifluoromethyl)-2,3-dihydro-5H-[1,4]thiazino[2,3,4-ij]quinazolin-5-one]
7 | 80.9 | [2H]C([2H])=C([2H])C(=O)N1[C@H](C)CN(c2nc(=O)n3c4c(c(-c5ccc(F)cc5F)c(C(F)(F)F)cc24)SC[C@@H]3COC)C[C@@H]1C (atropisomer, axis not shown) [Example 1404, (3S,10S)-7-((3S,5R)-4-(acryloyl-d3)-3,5-dimethylpiperazin-1-yl)-10-(2,4-difluorophenyl)-3-(methoxymethyl)-9-(trifluoromethyl)-2,3-dihydro-5H-[1,4]thiazino[2,3,4-ij]quinazolin-5-one]
8 | 93 | C=CC(=O)N1[C@H](C)CN(c2nc(=O)n3c4c(c(-c5ccc(F)cc5F)c(C(F)(F)F)cc24)SCC(CO)(CO)C3)C[C@@H]1C [Example 1442, 8-((3S,5R)-4-acryloyl-3,5-dimethylpiperazin-1-yl)-11-(2,4-difluorophenyl)-3,3-bis(hydroxymethyl)-10-(trifluoromethyl)-3,4-dihydro-2H,6H-[1,4]thiazepino[2,3,4-ij]quinazolin-6-one]
9 | 85 | C=CC(=O)N1[C@H](C)CN(c2nc(=O)n3c4c(c(-c5ccc(F)cc5F)c(C(F)(F)F)cc24)SC[C@@H]3CN2CCN(CC)CC2)C[C@@H]1C (atropisomer, axis not shown) [Example 1330, (3S,10S)-7-((3S,5R)-4-acryloyl-3,5-dimethylpiperazin-1-yl)-10-(2,4-difluorophenyl)-3-((4-ethylpiperazin-1-yl)methyl)-9-(trifluoromethyl)-2,3-dihydro-5H-[1,4]thiazino[2,3,4-ij]quinazolin-5-one]
10 | 70 | [2H]C([2H])=C([2H])C(=O)N1C[C@H](C)N(c2nc(=O)n3c4c(c(-c5cc(Cl)c(F)cc5F)c(C(F)(F)F)cc24)SCC2(COC2)C3)C[C@H]1C (atropisomer, axis not shown) [Example 1433, (S)-8′-((2S,5R)-4-(Acryloyl-d3)-2,5-dimethylpiperazin-1-yl)-11′-(5-chloro-2,4-difluorophenyl)-10′-(trifluoromethyl)-2′H,4′H,6′H-spiro[oxetane-3,3′-[1,4]thiazepino[2,3,4-ij]quinazolin]-6′-one]
11 | 81 | C=CC(=O)N1C[C@H](C)N(c2nc(=O)n3c4c(c(-c5cc(Br)c(F)cc5F)c(C(F)(F)F)cc24)SCC2(COC2)C3)C[C@H]1C [Example 1436, 8′-((2S,5R)-4-acryloyl-2,5-dimethylpiperazin-1-yl)-11′-(5-bromo-2,4-difluorophenyl)-10′-(trifluoromethyl)-2′H,4′H,6′H-spiro[oxetane-3,3′-[1,4]thiazepino[2,3,4-ij]quinazolin]-6′-one]

Same assay, conditions: 10 uM compound, 60 min incubation

Row | % CAF 10 uM @ 60 min [%] | SMILES
12 | 93.9 | C=CC(=O)N1[C@H](C)CN(c2nc(=O)n3c4c(c(-c5cc(Cl)c(F)cc5F)c(C(F)(F)F)cc24)SC[C@@H]3COC)C[C@@H]1C (single isomer, unassigned) [Example 1140]

Same assay, conditions: after 60 min

Row | CAF (% binding after 60 min) [%] | SMILES
13 | 96 | C=CC(=O)N1[C@H](C)CN(c2nc(=O)n3c4c(c(-c5ccc(F)cc5F)c(C(F)(F)F)cc24)SC[C@@H](OCCOC)C3)C[C@@H]1C [Example 1027, (3S)-8-((3S,5R)-4-acryloyl-3,5-dimethylpiperazin-1-yl)-11-(2,4-difluorophenyl)-3-(2-methoxyethoxy)-10-(trifluoromethyl)-3,4-dihydro-2H,6H-[1,4]thiazepino[2,3,4-ij]quinazolin-6-one 3,4-dihydro-2H,6H-[1,4]thiazepino[2,3,4-ij]quinazolin-6-one]
14 | 90 | C=CC(=O)N1CCN(c2nc(=O)n3c4c(c(-c5ccc(F)c(Cl)c5)c(C(F)(F)F)cc24)SC[C@H](OCOC)C3)CC1 [Example 1006, (R)-8-(4-acryloylpiperazin-1-yl)-11-(3-chloro-4-fluorophenyl)-3-(methoxymethoxy)-10-(trifluoromethyl)-3,4-dihydro-2H,6H-[1,4]thiazepino[2,3,4-ij]quinazolin-6-one]
15 | 96 | C=CC(=O)N1[C@H](C)CN(c2nc(=O)n3c4c(c(-c5ccc(F)cc5)c(C(F)(F)F)cc24)SC[C@@H](OCOC)C3)C[C@@H]1C [Example 1010, (S)-8-((3S,5R)-4-acryloyl-3,5-dimethylpiperazin-1-yl)-11-(4-fluorophenyl)-3-(methoxymethoxy)-10-(trifluoromethyl)-3,4-dihydro-2H,6H-[1,4]thiazepino[2,3,4-ij]quinazolin-6-one]

Reference: patent US20230107642A1 (Erasca, Inc., priority 2020, published 2023)
